Reference: PMC9960827, “Cloning and Characterization of Trypanosoma congolense and T. vivax Nucleoside Transporters Reveal the Potential of P1-Type Carriers for the Discovery of Broad-Spectrum Nucleoside-Based Therapeutics against Animal African Trypanosomiasis” (International Journal of Molecular Sciences, 2023)
Read-outs that look alike come from different tables or passages of the source. Marks after values point to notes of the source that are not given here.

Experiments:
[1] = biological target: TvxNT3 (Trypanosoma vivax, UniProt F9WV62); assay: cell-based; format: cell-based; settings: for remaining activity at 100 µM: read-out: [3H]-adenosine uptake remaining in presence of inhibitor
Excerpt: The information for the T. congolense adenosine transporter (TcoAT1) and four putative T. vivax nucleoside transporters was obtained in the TritrypDB (tritrypdb.org/tritrypdb) genome database. Primers were designed to flank each gene upstream of the 5′ end (forward) and downstream of the 3′ end (reverse) as described (primer sequences in Supplementary Table S2). Following amplification from the genomic DNA of T. congolense or T. vivax, DNA for each extracted gene was ligated into the pNUS-HcN expression vector doubly digested with NdeI using the NEBuilder kit according to the manufacturer’s instructions (New England Biolabs). Construct was transformed into competent E. coli cells, and ligation was confirmed by restriction enzyme digestion of isolated plasmid DNA followed by Sanger sequencing (Source BioScience, Nottingham, UK). Confirmed plasmids were then transfected into L. mexicana cell line in which both NT1 and NT2 were doubly knocked out (SUPKO) and derived from L. mexicana Cas9 [64] as described. Clones grown in medium containing 50 μg/mL neomycin (G418) were collected for further confirmation by PCR with genomic DNA using a forward primer of the transporter gene and a reverse primer of the plasmid.
(§1) Uptake assays using radiolabeled trypanocides and/or nucleosides were carried out as described previously. Briefly, parasite cultures were harvested, washed twice in assay buffer (33 mM HEPES, 98 mM NaCl, 4.6 mM KCl, 0.5 mM CaCl2, 0.07 mM MgSO4, 5.8 mM NaH3PO4, 0.03 mM MgCl2, 23 mM NaHCO3, 14 mM D-glucose, pH 7.3), then resuspended and adjusted to a density of 1 × 10^8 cells/mL in assay buffer. The radiolabeled permeant in the presence or absence of different concentrations of potential inhibitors reconstituted in 100 μL assay buffer was deposited on top of 250 μL oil mix in microcentrifuge tubes; 1 × 10^7 parasites in 100 μL assay buffer were added to the tube and incubated for a pre-determined interval. The reaction was stopped by the addition of 1 mL of a high concentration of ice-cold unlabeled substrate in assay buffer (‘stop solution’) and centrifugation, or by immediate centrifugation at […] as appropriate. The microcentrifuge tubes were flash-frozen, and the bottom of each tube containing the cell pellet was cut off and transferred to a scintillation vial. Cell pellets were lysed in 2% SDS, after which scintillation fluid (Scintlogic U, Lablogic) was added, followed by overnight incubation in the dark. Scintillation was measured in a 300SL (Hidex) scintillation counter (Hidex). All the assays were conducted in triplicate and analysis was carried out using Microsoft Excel and GraphPad Prism. All kinetic parameters were obtained on at least 3 separate occasions.
The dose-dependent uptake assay allowed for the affinity of nucleoside analogs to different nucleoside transporters to be determined by measuring the extent to which the analogs compete with and inhibit the uptake of radiolabel adenosine. This allowed for the determination of biochemical parameters such as Km and Vmax through the application of the Michaelis–Menten equation V0 = Vmax([substrate]/([substrate] + Km)). The 50% Inhibitory Concentration (IC50) of the purines and pyrimidines and their analogs was determined from non-linear regression to sigmoid curves with variable slope (Prism 8), and the IC50 of the inhibitor and the Km of the labeled permeant were then used to calculate the inhibition constant (Ki) of the analogs through the Cheng–Prusoff equation: Ki = IC50/(1 + (L/Km)), where L denotes the radiolabel concentration. The calculated Ki was in turn used to determine the Gibbs free energy (ΔG^0) of the inhibitor–transporter interaction using the equation: ΔG^0 = -RTln(Ki), where R represents the gas constant and T symbolizes the absolute temperature in Kelvin [104].

[2] = system: TbNT10; design: method as in Al-Salabi et al. [40]; settings: called Km values; ref Al-Salabi et al. [40]; cited from earlier work
[3] = system: T. congolense adenosine transporter; assay: [3H]-adenosine uptake and its inhibition in T. congolense IL3000 bloodstream forms; format: cell-based, Trypanosoma congolense; settings: for ΔG0, Gibbs free energy of interaction: calculated from Km or Ki; for Ki: 30 s, IC50 converted to Ki, read-out: Ki on the transport of [3H]-adenosine
In short: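 Bloodstream-form T. congolense IL3000 (1 × 10^7 cells) in HEPES/bicarbonate buffer pH 7.3 took up [3H]-adenosine over a set interval, with or without inhibitor, ending by ice-cold unlabeled substrate stop or centrifugation through oil. Pellet radioactivity gave IC50 by sigmoid fit; Ki followed by Cheng–Prusoff using adenosine Km.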

[4] = system: TcoAT1; format: cell-based, Trypanosoma congolense; settings: for ΔG0: Gibbs free energy of binding, from Km or Ki; for Ki: 10 s, IC50 converted to Ki, read-out: Ki on the transport of [3H]-adenosine
In short: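 Transporter genes were expressed in an L. mexicana line lacking NT1 and NT2 (SUPKO), and 1 × 10^7 cells in HEPES/bicarbonate buffer pH 7.3 took up radiolabeled permeant through an oil layer, with or without inhibitor. Uptake was stopped with ice-cold unlabeled substrate or by centrifugation, and pellets were counted. IC50 against radiolabeled adenosine was converted to Ki by Cheng–Prusoff using the permeant Km.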

[5] = system: T. b. brucei P1 (TbP1/NT2); settings: cited from earlier work
[6] = system: BSF T. congolense; assay: Manual cell count of T. congolense cultures exposed to drug; format: cell-based, Trypanosoma congolense
Method: For the direct assessment of test compounds on parasite growth, a manual cell count of cultures grown in the presence or absence of test drugs was carried out to determine the effect of test drugs on the multiplication rate of the parasites as described. The cells were adjusted to the required density in 2 mL of the appropriate medium with or without the drug/compound of interest, in a 24-well plate, followed by incubation under standard conditions. The cells were then manually counted at intervals with a Neubauer cell chamber using a phase-contrast light microscope (Axioscope, Zeiss, Jena, Germany).

[7] = system: T.b.b. B48; design: method as in Hulpia et al. [38]; settings: compound marked *; ref Hulpia et al. [38]; cited from earlier work
[8] = system: T. evansi; design: method as in Hulpia et al. [38]; settings: compound marked *; ref Hulpia et al. [38]; cited from earlier work
[9] = system: T. equiperdum; design: method as in Hulpia et al. [38]; settings: compound marked *; ref Hulpia et al. [38]; cited from earlier work
[10] = system: T. congolense 6C3; assay: microbe, parasite or virus in culture; format: cell-based, Trypanosoma congolense; settings: for T. congolense 6C3 RF: resistance factor = EC50 (test strain)/EC50(control strain)
Method: (§2) EC50 values were determined by plotting to an equation for a sigmoid curve with variable slope (GraphPad Prism 8). All values were the average of at least three independent determinations on different days.

[11] = Resazurin toxicity assay on human embryonic kidney cells; format: cell-based; settings: human
Method: as §2

[12] = system: human embryonic kidney (HEK) cells; assay: as above; format: cell-based
Method: as §2

[13] = system: T. vivax; design: method as in Mabille et al. [69]; settings: added for comparison only; ref Mabille et al. [69]; cited from earlier work
[14] = system: T. congolense 6C3; design: method as in Hulpia et al. [38]; settings: values marked *; ref Hulpia et al. [38]; cited from earlier work
[15] = system: T. congolense IL3000 BSF; assay: Nucleus/kinetoplast configuration (DAPI) of T. congolense exposed to drug; format: cell-based, Trypanosoma congolense; settings: 2× or 5× EC50, 8 h
Method: To assess the effect of the drug on the cellular morphology and configuration of nuclei and kinetoplasts, treated cells were collected after incubation period, fixed, DAPI-treated and viewed under an Olympus IX71 DeltaVision Core System microscope (Applied Precision, GE) using the SoftWoRx suite 2.0 software (Applied Precision, GE). At least 300 cells were scored per slide for the number of kinetoplasts (K) and nuclei (N) as 1N1K, 1N2K, 2N2K, MKMN (M = many) and ‘others’ (aberrant N/K distribution).

[16] = system: T. congolense IL3000; design: method as in Hulpia et al. [38]; settings: values marked *; ref Hulpia et al. [38]; cited from earlier work
[17] = system: L. mexicana expressing TbAQP2; design: method as in PMID 24235095; settings: cited from earlier work
[18] = system: L. mexicana SUPKO; assay: microbe, parasite or virus in culture; format: cell-based, Leishmania mexicana
In short: (§3)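 Dose-response data were plotted against a sigmoid equation allowing a variable slope, and the EC50 was read from that fit. Replicates were independent determinations on separate days, at least three per value, then averaged.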

[19] = system: L. mexicana SUPKO+TcoAT1; assay: microbe, parasite or virus in culture; format: cell-based, Leishmania mexicana
In short: as §3

[20] = system: L. mexicana SUPKO+TvxNT3; assay: microbe, parasite or virus in culture; format: cell-based, Leishmania mexicana
In short: as §3

[21] = system: T.b.b. B48; assay: Alamar Blue (resazurin) assay, T. b. brucei B48; format: cell-based, Trypanosoma brucei brucei; settings: Trypanosoma brucei, read-out: T.b.b. B48 EC50
Method: as §2

[22] = system: T. congolense IL3000; assay: Alamar Blue (resazurin) assay, T. congolense IL3000; format: cell-based, Trypanosoma congolense; settings: Trypanosoma congolense; BSF, resazurin; read-out: T. congolense IL3000 EC50
Method: as §2

[23] = system: L. mexicana Cas9; assay: Resazurin drug sensitivity assay, LmexCas9; format: cell-based, Leishmania mexicana; settings: Leishmania mexicana, read-out: LmexCas9 EC50
In short: as §3

[24] = system: TcoAT1; assay: Uptake of [3H]-pentamidine and [3H]-diminazene in SUPKO+TcoAT1 versus SUPKO; format: cell-based, Trypanosoma congolense; settings: 25 nM [3H]-pentamidine or 50 nM [3H]-diminazene, SUPKO+TcoAT1 vs SUPKO
Method: as §1, with “All the assays were conducted in triplicate and analysis was carried out using Microsoft Excel and GraphPad Prism. All kinetic parameters were obtained on at least 3 separate occasions.” left out

[25] = Resistance Factor relative to SUPKO

Chain of TvxNT3 (F9WV62 entry or part of it): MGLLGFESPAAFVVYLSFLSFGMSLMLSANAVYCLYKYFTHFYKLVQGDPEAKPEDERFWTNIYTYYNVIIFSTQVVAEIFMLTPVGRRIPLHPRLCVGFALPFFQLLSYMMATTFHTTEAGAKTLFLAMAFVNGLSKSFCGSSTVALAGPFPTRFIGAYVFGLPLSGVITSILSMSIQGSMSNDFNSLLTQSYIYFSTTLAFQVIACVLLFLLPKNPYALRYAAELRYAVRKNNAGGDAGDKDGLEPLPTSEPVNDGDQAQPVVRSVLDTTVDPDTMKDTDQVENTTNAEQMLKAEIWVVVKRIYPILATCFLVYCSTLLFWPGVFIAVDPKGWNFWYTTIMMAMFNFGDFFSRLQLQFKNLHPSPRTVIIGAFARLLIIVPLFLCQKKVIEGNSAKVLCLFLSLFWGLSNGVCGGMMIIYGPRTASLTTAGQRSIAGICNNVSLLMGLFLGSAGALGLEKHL

## Nc1ncnc2c1ncn2[C@@H]1O[C@H](CO)[C@@H](O)[C@H]1O [Adenosine]
[1]; 50 nM [3H]-adenosine, SUPKO+TvxNT3
  level of uptake of adenosine: 3.9 × 10^−3 pmol(10^7 cells)^−1s^−1
[1]
  remaining activity at 100 µM: < 25%
[2]
  Km: 0.41 µM
[3]; 0.05 µM [3H]-adenosine, 30 s incubation, bloodstream forms
  Km: 0.48 ± 0.03 µM
[3]; 50 nM [3H]-adenosine, cultured IL3000
  rate of adenosine uptake: 0.014 ± 0.0037 pmol(10^7 cells)^−1s^−1
[3]; 30 s incubation
  Vmax of adenosine uptake: 0.11 ± 0.02 pmol(10^7 cells)^−1s^−1
[3]
  ΔG0, Gibbs free energy of interaction: -8.6 kcal/mol
[4]; 0.05 µM [3H]-adenosine, 10 s incubation
  Km: 0.42 ± 0.03 µM
[4]
  ΔG0: -8.7 kcal/mol
[5]; T. b. brucei bloodstream forms, read-out: Tbb P1 Km for adenosine
  Km: 0.36 ± 0.05 µM
[5]
  Tbb P1 ΔG0: -8.8 kcal/mol

## Nc1ncnc2c1c(Cl)cn2[C@@H]1O[C@H](CO)C[C@H]1O [FH8470, 7-chloro-7-deaza-3′-deoxyadenosine]
[6]; 5 × EC50, exposure for 48 h or continuously
  time to killing of the parasites: ≤ 72 h
[6]; 15 × EC50, short exposure (8 h), washed out or continuous
  time to death of the cells: ≤ 48 h
[7]
  EC50: 6.8 ± 0.9 nM
[8]
  EC50: 1.8 ± 0.2 nM
[9]
  EC50: 0.57 ± 0.08 nM
[10]
  T. congolense 6C3 RF: 0.53 ^a
[11]
  EC50: 12000 ± 320 nM
[12]; selectivity index = EC50 (HEK cells)/EC50 (T. congolense)
  SI T. congolense: 9800
[12]; selectivity index = EC50 (HEK cells)/EC50 (T. equiperdum)
  SI T. equiperdum: 21,100
[12]; selectivity index = EC50 (HEK cells)/EC50 (T. evansi)
  SI T. evansi: 6830
[3]; 0.05 µM [3H]-adenosine
  Ki: 17500 ± 3400 nM
[3]
  ΔG0, Gibbs free energy of interaction: -6.48 kcal/mol
[13]
  EC50: 96 ± 82 nM
[14]
  EC50: 0.66 ± 0.03 nM
[4]; 0.05 µM [3H]-adenosine
  Ki: 60600 ± 10700 nM
[4]
  ΔG0: -5.76 kcal/mol
[15]
  reduction of the number of cells with 2N2K configuration: 40–50 % of untreated control
[16]
  EC50: 1.2 ± 0.2 nM

## O=c1[nH]cnc2c1ncn2[C@@H]1O[C@H](CO)[C@@H](O)[C@H]1O [Inosine]
[1]; 100 µM inhibitor, 50 nM [3H]-adenosine
  remaining activity at 100 µM: < 25%
[1]; difference in ΔG0 relative to the parent purine (adenosine or inosine)
  δ(ΔG0): 1.21 kcal/mol
[2]
  Km: 0.53 µM
[3]; 0.05 µM [3H]-adenosine
  Ki: 270 ± 20 nM
[3]
  ΔG0, Gibbs free energy of interaction: -8.96 kcal/mol
[4]; 0.05 µM [3H]-adenosine
  Ki: 550 ± 90 nM
[4]
  ΔG0: -8.53 kcal/mol
[4]; loss of Gibbs free energy of binding relative to the parent nucleoside
  δ(ΔG0): 0.163 kcal/mol
[5]; T. b. brucei bloodstream forms, read-out: Tbb P1 Ki
  Ki: 440 ± 100 nM
[5]
  Tbb P1 ΔG0: -8.68 kcal/mol

## N=C(N)c1ccc(OCCCCCOc2ccc(C(=N)N)cc2)cc1 [Pentamidine, reference compound]
[17]
  sensitization upon expression of TbAQP2: 40 fold
[18]; Leishmania mexicana, read-out: SUPKO EC50, resazurin, promastigotes
  EC50: 1830 ± 290 nM
[18]; Resistance Factor = EC50(SUPKO)/EC50(Cas9)
  SUPKO RF (Cas9): 1.28
[19]; Leishmania mexicana, read-out: SUPKO+TcoAT1 EC50
  EC50: 1730 ± 200 nM
[19]; [25]
  SUPKO+TcoAT1 RF (SUPKO): 1.1
[20]; Leishmania mexicana, read-out: SUPKO+TvxNT3 EC50
  EC50: 2310 ± 180 nM
[20]; [25]
  SUPKO+TvxNT3 RF (SUPKO): 0.77
[10]; Trypanosoma congolense, read-out: T. congolense 6C3 EC50
  EC50: 440 ± 150 nM
[10]
  T. congolense 6C3 RF: 0.79
[21]
  EC50: 340 ± 60 nM
[22]
  EC50: 550 ± 110 nM
[23]
  EC50: 1430 ± 50 nM
[24]
  effect of the expression of TcoAT1 on the uptake of the trypanocide: no effect
